The test has as its system test plant species. Put plainly: Post-emergent herbicidal activity test (greenhouse, foliar spray, visual growth reduction). It counts as in vivo. The settings on record: post-emergence, 336 h, 140 g ai/ha, 14 days after application. The procedure, abridged:
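Scoring used a 0 to 100 percent visual scale of growth reduction against solvent-treated controls, read 14 d after spraying. Applications went onto plants at first or second true leaf stage, 187 L/ha, with crop oil concentrate and X-77 surfactant in the carrier. Post-treatment watering was by subirrigation to avoid wash-off.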

[1] abbreviates: ALOMY: blackgrass (Alopecurus myosuroides), read-out: Visual Growth Reduction (%) 14 Days After Application, ALOMY.
Where [2] appears, read: AMARE: redroot pigweed (Amaranthus retroflexus), read-out: Visual Growth Reduction (%) 14 Days After Application, AMARE.
[3] abbreviates: AVEFA: wild oat (Avena fatua), read-out: Visual Growth Reduction (%) 14 Days After Application, AVEFA.
[4] abbreviates: CHEAL: lambsquarters (Chenopodium album), read-out: Visual Growth Reduction (%) 14 Days After Application, CHEAL.
Where [5] appears, read: CIRAR: canada thistle (Cirsium arvense), read-out: Visual Growth Reduction (%) 14 Days After Application, CIRAR.
Where [6] appears, read: CYPES: yellow nutsedge (Cyperus esculentus), read-out: Visual Growth Reduction (%) 14 Days After Application, CYPES.
[7] abbreviates: DIGSA: crabgrass (Digitaria sanguinalis), read-out: Visual Growth Reduction (%) 14 Days After Application, DIGSA.
Where [8] appears, read: ECHCG: barnyardgrass (Echinochloa crus-galli), read-out: Visual Growth Reduction (%) 14 Days After Application, ECHCG.
Where [9] appears, read: IPOHE: ivy-leaf morning glory (Ipomoea hederacea), read-out: Visual Growth Reduction (%) 14 Days After Application, IPOHE.
Setting [10] is: KCHSC: kochia (Bassia scoparia), read-out: Visual Growth Reduction (%) 14 Days After Application, KCHSC.
Where [11] appears, read: ORYSA: rice (Oryza sativa), read-out: Visual Growth Reduction (%) 14 Days After Application, ORYSA.
Where [12] appears, read: SETFA: giant foxtail (Setaria faberi), read-out: Visual Growth Reduction (%) 14 Days After Application, SETFA.
The mark [13] stands for this setting: SORVU: grain sorghum (Sorghum vulgare), read-out: Visual Growth Reduction (%) 14 Days After Application, SORVU.
[14] abbreviates: STEME: common chickweed (Stellaria media), read-out: Visual Growth Reduction (%) 14 Days After Application, STEME.
Where [15] appears, read: TRZAS: wheat, spring (Triticum aestivum), read-out: Visual Growth Reduction (%) 14 Days After Application, TRZAS.

Where two headings read alike, the source gives them in different places.

For the compound `COC(=O)c1nc(-c2ccc(C(F)(F)F)cc2Cl)ncc1Cl` [F105, Methyl 5-chloro-2-(2-chloro-4-(trifluoromethyl)phenyl)pyrimidine-4-carboxylate], the pest or weed control at 140 g/ha is, setting by setting: under setting [1], 0 to 29%; under setting [2], 95 to 100%; under setting [3], 0 to 29%; under setting [4], 85 to 94%; under setting [5], 85 to 94%; under setting [6], 0 to 29%. Moreover, the pest or weed control at 140 g/ha runs as follows: under setting [7], 85 to 94%; under setting [8], 60 to 74%; under setting [9], 95 to 100%; under setting [10], 60 to 74%; under setting [11], 0 to 29%; under setting [12], 60 to 74%. Further, the pest or weed control at 140 g/ha by setting is: under setting [13], 75 to 84%; under setting [14], 0 to 29%; under setting [15], 0 to 29%.
Take `COC(=O)c1nc(-c2ccc(C(F)(F)F)cc2)c(Cl)cc1Cl` [F106, Methyl 3,5-dichloro-6-(4-(trifluoromethyl)phenyl)picolinate]: the pest or weed control at 140 g/ha fell in the range of 0 to 29% under setting [1]; 45 to 59% under setting [2]; 0 to 29% under setting [3]; 30 to 44% under setting [4]; 0 to 29% under setting [5]; 0 to 29% under setting [6]. For the same compound, the pest or weed control at 140 g/ha reads like this: under setting [7], 45 to 59%; under setting [8], 0 to 29%; under setting [9], 45 to 59%; under setting [10], 0 to 29%; under setting [11], 0 to 29%; under setting [12], 0 to 29%. Besides, the pest or weed control at 140 g/ha was 30 to 44% under setting [13], 0 to 29% under setting [14] and 0 to 29% under setting [15].
Regarding `COC(=O)c1nc(-c2ccc(C(F)(F)F)cc2Cl)c(F)cc1Cl` [F107, methyl 3-chloro-6-(2-chloro-4-(trifluoromethyl)phenyl)-5-fluoropicolinate], the pest or weed control at 140 g/ha by setting is: under setting [1], 30 to 44%; under setting [2], 95 to 100%; under setting [3], 45 to 59%; under setting [4], 95 to 100%; under setting [5], 95 to 100%; under setting [6], 0 to 29%. Besides, the pest or weed control at 140 g/ha is, setting by setting: under setting [7], 95 to 100%; under setting [8], 0 to 29%; under setting [9], 95 to 100%; under setting [10], 60 to 74%; under setting [11], 0 to 29%; under setting [12], 45 to 59%. Further, the pest or weed control at 140 g/ha reads like this: under setting [13], 95 to 100%; under setting [14], 0 to 29%; under setting [15], 45 to 59%.
As for `COC(=O)c1nc(-c2ccc(C(F)(F)F)cc2Cl)cc(Cl)c1Cl` [F108, methyl 3,4-dichloro-6-(2-chloro-4-(trifluoromethyl)phenyl)picolinate], the pest or weed control at 140 g/ha was in the range of 0 to 29% under setting [1]; 0 to 29% under setting [2]; 0 to 29% under setting [3]; 0 to 29% under setting [4]; 0 to 29% under setting [5]; 0 to 29% under setting [6]. Moreover, the pest or weed control at 140 g/ha was 0 to 29% under setting [7]; 0 to 29% under setting [8]; 30 to 44% under setting [9]; 0 to 29% under setting [10]; 0 to 29% under setting [11]; 0 to 29% under setting [12]. For the same compound, the pest or weed control at 140 g/ha under setting [13] fell in the range of 0 to 29% and the pest or weed control at 140 g/ha under setting [15] lay in the range of 0 to 29%.
As for `COC(=O)c1nc(-c2ccc(C(F)(F)F)c(F)c2F)ccc1Cl` [F110, Methyl 3-chloro-6-(2,3-difluoro-4-(trifluoromethyl)phenyl)picolinate], the pest or weed control at 140 g/ha runs as follows: under setting [1], 0 to 29%; under setting [2], 85 to 94%; under setting [3], 0 to 29%; under setting [4], 75 to 84%; under setting [5], 85 to 94%; under setting [6], 0 to 29%. For the same compound, the pest or weed control at 140 g/ha reads like this: under setting [7], 0 to 29%; under setting [8], 0 to 29%; under setting [9], 95 to 100%; under setting [10], 0 to 29%; under setting [11], 0 to 29%; under setting [12], 0 to 29%. Moreover, the pest or weed control at 140 g/ha by setting is: under setting [13], 60 to 74%; under setting [15], 0 to 29%.
As to `CC(F)(F)c1ccc(-c2ccc(Cl)c(C(=O)O)n2)c(Cl)c1` [F111, 3-Chloro-6-(2-chloro-4-(1,1-difluoroethyl)phenyl) picolinic acid], the pest or weed control at 140 g/ha was in the range of 60 to 74% under setting [1]; 95 to 100% under setting [2]; 60 to 74% under setting [3]; 95 to 100% under setting [4]; 95 to 100% under setting [5]; 0 to 29% under setting [6]. Further, the pest or weed control at 140 g/ha by setting is: under setting [7], 85 to 94%; under setting [8], 95 to 100%; under setting [9], 95 to 100%; under setting [10], 95 to 100%; under setting [11], 0 to 29%; under setting [12], 75 to 84%. For the same compound, the pest or weed control at 140 g/ha is 85 to 94% under setting [13] and 75 to 84% under setting [15].
As to `COC(=O)c1nc(-c2ccc(C(C)(F)F)cc2Cl)ccc1Cl` [F112, Methyl 3-chloro-6-(2-chloro-4-(1,1-difluoroethyl)phenyl) picolinate], the pest or weed control at 140 g/ha is, setting by setting: under setting [1], 60 to 74%; under setting [2], 95 to 100%; under setting [3], 95 to 100%; under setting [4], 95 to 100%; under setting [5], 95 to 100%; under setting [6], 45 to 59%. Besides, the pest or weed control at 140 g/ha under setting [7] lay within 85 to 94%; the pest or weed control at 140 g/ha under setting [8] lay in the range of 75 to 84%; the pest or weed control at 140 g/ha under setting [9] lay in the range of 95 to 100%; the pest or weed control at 140 g/ha under setting [10] is 95 to 100%; the pest or weed control at 140 g/ha under setting [11] was 0 to 29%; the pest or weed control at 140 g/ha under setting [12] was 60 to 74%. Also, the pest or weed control at 140 g/ha reads like this: under setting [13], 95 to 100%; under setting [15], 60 to 74%.
On to `COC(=O)c1nc(-c2ccc(C(F)(F)F)cc2Cl)ccc1F` [F113, methyl 6-(2-chloro-4-(trifluoromethyl)phenyl)-3-fluoropicolinate], for which the pest or weed control at 140 g/ha reads like this: under setting [1], 0 to 29%; under setting [2], 95 to 100%; under setting [3], 45 to 59%; under setting [4], 95 to 100%; under setting [5], 85 to 94%; under setting [6], 0 to 29%. Further, the pest or weed control at 140 g/ha was in the range of 85 to 94% under setting [7]; 75 to 84% under setting [8]; 95 to 100% under setting [9]; 60 to 74% under setting [10]; 30 to 44% under setting [11]; 75 to 84% under setting [12]. The pest or weed control at 140 g/ha under setting [13] lay within 85 to 94%, the pest or weed control at 140 g/ha under setting [14] lay in the range of 0 to 29% and the pest or weed control at 140 g/ha under setting [15] was 0 to 29%.

Values taken from patent publication US20230017045A1, “PYRIDINE AND PYRIMIDINE CARBOXYLATE HERBICIDES AND METHODS OF USE THEREOF” (Dow AgroSciences LLC, priority 2017, published 2023).
